According to patent publication US20230127559A1, “PEPTIDE ANALOGS AND USE OF SAME IN TREATING DISEASES, DISORDERS OR CONDITIONS ASSOCIATED WITH MUTANT P53 PROTEIN” (YEDA RESEARCH AND DEVELOPMENT CO. LTD., priority 2020, published 2023):
pIC50: −log10 of the molar value. Like-named read-outs stand apart in the source and are kept apart here. Where a SMILES comes first, the peptide text is derived from it. Bridges are numbered along the chain shown (N, C = ends). [ ]: non-standard residue; d: D form. The star is where a group is joined. Stearoyl = CCCCCCCCCCCCCCCCCC(=O)*; Myristoyl = CCCCCCCCCCCCCC(=O)*; Dab = NCC[C@H](N)C(=O)O; Dmp = di-methyl proline

Assays:
[1] = Solubility at physiological pH; assay type: physicochemical
[2] = test system: panel of cell lines expressing mutp53; assay type: cell-based; conditions: for pIC50: 48 h
Method: (§1) Cells were cultured in 96 wells plates with 2500-4000 cells/well. Serial dilutions of different peptides were added and the plates incubated for additional 48 h at 37° C. Then medium was removed and cell viability was determined by staining the cells with crystal violet (0.05%) in methanol/PBS (1:5, v/v), for 10 min, followed by 3 washes with PBS. 10% acetic acid was added to each well for 10 min. OD was determined at 595 nm.
(§2) The IC50 tables presented in FIGS. 17-20 are from several representative experiments performed on cell lines expressing several p53 hotspot mutations, as well as control non-transformed cells:
Proline residue position—Based on alanine scanning and molecular dynamics analyses, it is believed that the proline residue at the 6th position from the N-terminal is critical for the peptide's 3D structure and provides some rigidity required for peptide binding and activity. Therefore, it was hypothesized that a change in orientation or tetrahedral angle might increase the affinity of the peptide for p53. Six new peptides were synthesized replacing this proline residue with proline analogs (pCAPs 708-712, and pCAP-716, SEQ ID NOS: 6-10 and 14, respectively). This set of peptides was tested for activity on a panel of cell lines expressing mutp53, and compared it to pCAP-674 (SEQ ID NO: 27) and to the scrambled sequence peptides pCAP-721 (SEQ ID NO: 19) and pCAP-722 (SEQ ID NO: 20).

[3] = test system: PANC1 (pancreatic carcinoma) cells, p53R273H; assay type: cell-based
Method: as §1
(§3) The IC50 tables presented in FIGS. 17-20 are from several representative experiments performed on cell lines expressing several p53 hotspot mutations, as well as control non-transformed cells: […]

[4] = test system: MIA PaCa-2 (pancreatic carcinoma) cells, p53R248W; assay type: cell-based
Method: as §1, §3

[5] = test system: WI38 (non-transformed fibroblasts) cells, wtp53; assay type: cell-based
Method: as §1, §3

[6] = test system: RXF-393 renal cell carcinoma (RCC) cell line, endogenously expressing p53R175H; experiment: RXF-393 luciferase xenograft model, tumor growth by IVIS; assay type: in vivo, athymic Nude-Foxn1nu mice; conditions: for tumor growth, average IVIS signal (in words): subcutaneous injections 20 mg/Kg, 2 days a week
Source text: To investigate the efficacy of the lead peptides in vivo, a representative cancer cell line-based xenograft model was employed. The selection of the in vivo model was based on the peptide/cell line combination that yielded the strongest effects in culture: human renal carcinoma RXF-393 cells. The peptide analog pCAP-724 (SEQ ID NO: 22), administered by subcutaneous injections and sustained subcutaneous release, was compared to the control scrambled peptide pCAP-722 (SEQ ID NO: 20). Tumor growth was monitored by luciferase activity, measured in an IVIS200® Spectrum system that combines 2D optical and 3D optical tomography in one platform. The system uses leading optical technology for preclinical imaging research and development, ideal for non-invasive longitudinal monitoring of disease progression in living animals
The RXF-393 renal cell carcinoma (RCC) cell line, endogenously expressing p53R175H, and stably expressing Luciferase was utilized. • 1. 0.75×10^6 cells in 50% HBSS 50% Cultrex (1000) were injected subcutaneously, into both hips of athymic Nude-Foxn1nu mice (6 weeks old). • 2. Tumor growth over time was measured by live imaging, using the […] system. Exposure time was calibrated to 20 sec and peak luminescence values were taken for each tumor. • 3. 21 and 24 days after injection of cells, when tumors reached visible size (50-100 mm^3) and an average IVIS signal of 10^7 (100-fold over threshold), the mice were randomly divided into several groups (5 or 6 mice per each group), according to the mode of administration and peptides: • Subcutaneous injections, performed 2 days a week for 3-4 weeks (20 mg/Kg). Two injections will be given for each day of treatment 16 h interval to allow effective level of peptide for 24 h. […]
• 4. Tumor growth over time was measured by live imaging, twice a week. The experiment was conducted until tumors reached the maximal allowed size of 1 cm^3, at which time mice were sacrificed, tumors extracted, measured, photographed, and weighed.

[7] = test system: SW-480 (colon carcinoma) cells, p53R273H, P309S; assay type: cell-based
Method: as §1, §3

[8] = Pharmacokinetic profile, LC-MS of peptide concentration in plasma; assay type: in vivo, mice
Method: FIG. 21 depicts PK profile for pCAP-724 (SEQ ID NO:22). LC-MS analysis of peptide concentration in the plasma of injected mice. Each point represents an average reading from 3 mice. Shown are mean plasma concentrations (mpk) of the peptide, following administration either intravenously at 1 mg/kg (IV) or subcutaneously at 5 mg/kg (SC).
Each point represents the average from 3 mice. When administered subcutaneously into mice, pCAP-724 levels reach a maximal concentration after 2 h and a show a half-life (T1/2) of about 10 h. […] From the PK study, it is estimated that a continuous long-acting administration of 20 mg/kg/day of pCAP-724 (SEQ ID NO: 22) will yield a steady state concentration in the blood of about 7-10 μM.

[9] = test system: RXF-393 (renal carcinoma) cells, p53R175H; assay type: cell-based, human
Method: as §1, §2
Fatty acid position. Lead peptides were modified with N-terminal myristic acid to enable the penetration of peptides across the cell membrane. Although myristic acid is usually the default choice for cell permeability, additional options were explored of longer fatty acids and to examine the effect on peptide efficacy in terms of cancer cell killing. A standard crystal violet viability test was performed on human renal carcinoma RXF-393 cells, comparing the original pCAP-553, which has myristic acid (C14), with 4 derivative peptides modified with longer fatty acid chains: palmitic (C16), stearic (C18), […] (C20) and behenic (C22).

[10] = test system: PC9 (lung carcinoma) cells, p53R248Q; assay type: cell-based
Method: as §1, §3

Row | Molecule | pIC50 ([3]; 48 h) | pIC50 ([4]; 48 h) | pIC50 ([7]; 48 h) | activity in viability assays compared with other peptides (in words) [2] | pIC50 ([5]; 48 h) | also measured
1 | CCCCCCCCCCCCCC(=O)N[C@@H](CCCNC(=N)N)C(=O)N[C@@H](CCCNC(=N)N)C(=O)N[C@@H](Cc1c[nH]cn1)C(=O)N[C@@H](CO)C(=O)N[C@@H](C(=O)N1CCC[C@H]1C(=O)N[C@@H](CCN)C(=O)N1CCC[C@H]1C(=O)N[C@@H](CC(=O)O)C(=O)O)C(C)C [pCAP-553, myr-RRHSvP(L-Dab)PD] (Myristoyl-RRHS[dV]P[Dab]PD-OH; C-terminus assumed) | 5.68 | 5.92 |  | improved efficacy relatively to pCAP-250 | < 4.40 | solubility (in words) [1]: better solubility at physiological pH
2 | str-RRHSv(Dmp)(Dab)PD-NH2 (Stearoyl-RRHS[dV][Dmp][Dab]PD-NH2) [pCAP-716, Dmp—Di-methyl proline] |  |  |  | consistently modestly improved activity over pCAP-674 |  | pIC50 ([9]; FIG. 19, read-out: RXF IC50): 6.38; pIC50 ([9]; FIG. 20, read-out: RXF 393 IC50): 6.52; activity in viability assays compared with other peptides (in words) ([2]; listed as 716): highest activity; pIC50 ([3]; FIG. 19, read-out: PANCI IC50): 5.70; pIC50 ([10]; FIG. 19, read-out: PC9 IC50): 6.20; pIC50 ([10]; FIG. 20, read-out: PC9 IC50): 6.15; pIC50 ([7]; FIG. 20, read-out: SW-480 IC50): 6.00; pIC50 ([4]; FIG. 20, read-out: MIAPaca IC50): 6.52; pIC50 ([5]; FIG. 19, read-out: WI38 IC50): 4.48
3 | CCCCCCCCCCCCCCCCCC(=O)N[C@@H](CC(=O)O)C(=O)N1CCC[C@H]1C(=O)N[C@@H](Cc1c[nH]cn1)C(=O)N[C@H]1CCCCNC(=O)[C@H](CCCNC(=N)N)NC(=O)[C@H](CCN)NC(=O)[C@H](CCCNC(=N)N)NC(=O)[C@@H]2CCCN2C(=O)[C@H](CO)NC1=O [pCAP-725, str-DPHKSPR(Dab)R-Cyc, reference compound] (Stearoyl-DPHKSPR[Dab]R; lactam 4-C) | < 4.40 | < 4.52 | < 4.52 |  | < 4.40 | 
4 | CCCCCCCCCCCCCCCCCC(=O)N[C@@H](CC(=O)O)C(=O)N1CCC[C@H]1C(=O)N[C@@H](Cc1c[nH]cn1)C(=O)N[C@@H](C(=O)N[C@@H](CO)C(=O)N1CCC[C@H]1C(=O)N[C@@H](CCCNC(=N)N)C(=O)N[C@@H](CCN)C(=O)N[C@@H](CCCNC(=N)N)C(N)=O)C(C)C [pCAP-722, str-DPHvSPR(Dab)R-NH2, reference compound] (Stearoyl-DPH[dV]SPR[Dab]R-NH2) | < 4.40 |  |  |  | < 4.40 | pIC50 ([9]; 48 h): < 4.40; tumor growth, average IVIS signal (in words) [6]: continued its exponential growth; pIC50 ([10]; 48 h): < 4.40

The next lines start with results.

Row | pIC50 ([3]; 48 h) | pIC50 ([4]; 48 h) | pIC50 ([7]; 48 h) | Molecule | activity in viability assays compared with other peptides (in words) [2] | pIC50 ([5]; 48 h) | also measured
5 | 5.99 | 6.60 | 6.19 | CCCCCCCCCCCCCCCCCC(=O)N[C@@H](CCCNC(=N)N)C(=O)N[C@@H](CCCNC(=N)N)C(=O)N[C@@H](Cc1c[nH]cn1)C(=O)N[C@@H](CO)C(=O)N[C@@H]1CCCCNC(=O)[C@H](CC(=O)O)NC(=O)[C@@H]2CCCN2C(=O)[C@H](CCN)NC(=O)[C@H]2CCCN2C1=O [pCAP-724, str-RRHSkp(Dab)PD-Cyc] (Stearoyl-RRHS[dK][dP][Dab]PD; lactam 5-C) | modest increase in activity compared with pCAP-713 | 4.49 | decrease in tumor signal (IVIS) ([6]; Alzet mini pumps 20 mg/Kg/Day SC continuous, within 14 days): 5 fold; tumor growth, average IVIS signal (in words) [6]: slowed down tumor growth for the first 10 days; pIC50 [2]: 6.00 to 7.00; estimated steady state concentration in the blood ([8]; continuous long-acting administration of 20 mg/kg/day): 7 to 10 µM; half-life ([8]; mouse, in vivo, sc, 5 mg/kg, administered subcutaneously into mice, read-out: half-life (T1/2) (converted)): ~10 h; Tmax ([8]; mouse, plasma, sc, 5 mg/kg, administered subcutaneously into mice, read-out: time of maximal plasma concentration): 2 h
6 | 5.98 | 6.52 |  | CCCCCCCCCCCCCCCCCC(=O)N[C@@H](CCCNC(=N)N)C(=O)N[C@@H](CCCNC(=N)N)C(=O)N[C@@H](Cc1c[nH]cn1)C(=O)N[C@@H](CO)C(=O)N[C@H]1CCCCNC(=O)[C@H](CC(=O)O)NC(=O)[C@@H]2CCCN2C(=O)[C@H](CCN)NC(=O)[C@@H]2CCCN2C1=O [pCAP-713, str-RRHSKP(Dab)PD-Cyc] (Stearoyl-RRHSKP[Dab]PD; lactam 5-C) | highest activity |  | pIC50 [2]: 6.00 to 7.00; increase in activity over pCAP-674 ([2]; FIGS. 18-20): 1.5-3 folds; increase in activity over the original pCAP-553 ([2]; FIGS. 18-20): 4-10 folds
7 | 5.91 | 6.52 | 5.92 | CCCCCCCCCCCCCCCCCC(=O)N[C@@H](CCCNC(=N)N)C(=O)N[C@@H](CCCNC(=N)N)C(=O)N[C@@H](Cc1c[nH]cn1)C(=O)N[C@@H](CO)C(=O)N[C@@H](C(=O)N1CCC[C@@H]1C(=O)N[C@@H](CCN)C(=O)N1CCC[C@H]1C(=O)N[C@@H](CC(=O)O)C(=O)NCC(=O)N[C@@H](CCC(=O)O)C(=O)N[C@@H](C)C(=O)O)C(C)C [pCAP-720, str-RRHSvp(Dab)PDGEA] (Stearoyl-RRHS[dV][dP][Dab]PDGEA-OH; C-terminus assumed) | comparable activity to pCAP-717 | 4.49 | 
8 | 5.67 | 6.52 | 5.92 | CCCCCCCCCCCCCCCCCC(=O)N[C@@H](CCCNC(=N)N)C(=O)N[C@@H](CCCNC(=N)N)C(=O)N[C@@H](Cc1c[nH]cn1)C(=O)N[C@@H](CO)C(=O)N[C@@H](C(=O)N1CCC[C@H]1C(=O)N[C@@H](CCN)C(=O)N1CCC[C@H]1C(=O)N[C@@H](CC(=O)O)C(N)=O)C(C)C [pCAP-717, str-RRHSvP(Dab)PD-NH2] (Stearoyl-RRHS[dV]P[Dab]PD-NH2) |  | 4.46 | 
